Patent US6537976B1, “Dialysis solutions containing water soluble vitamins and nutrients” (priority 1997, dated 2003)
Like-named read-outs stand apart in the source and are kept apart here. One block for each compound: values may come before it.

What was measured:
[1] = cited from earlier work
[2] = In vitro hemodialysis of uremic plasma using dialysate solutions with and without added vitamins
[3] = cited from earlier work; remark: listed apart in the source
[4] = cited from earlier work; remark: listed apart in the source
[5] = subjects with normal renal function; cited from earlier work
plasma proteins = settings: subjects with normal kidney function; effects of uremia not examined; cited from earlier work
[6] = vitamin in the dialysate 0 μg/L
[7] = vitamin in the dialysate 15 μg/L
[8] = vitamin in the dialysate 150 μg/L
[9] = vitamin in the dialysate 60 μg/L
[10] = vitamin in the dialysate 600 μg/L

Compound: O=C1O[C@H]([C@@H](O)CO)C(O)=C1O [Ascorbic acid (vit C), ascorbic acid]
Plasma concentration in hemodialysis patients receiving supplementation in high doses ([1]; 500 mg ascorbic acid/day for 2 weeks, mean ± SE): 28 ± 2 mg/L (mean ± SE), | Plasma concentration in hemodialysis patients receiving supplementation in high doses, Range ([1]; 500 mg ascorbic acid/day for 2 weeks, range): Range: 15-37 mg/L,

Plasma concentration of the vitamin after dialysis for 0 min (Baseline) [2, 6]: 5.8 ng/mL | Plasma concentration of the vitamin after dialysis for 45 min [2, 6]: 1.7 ng/mL | Plasma concentration of the vitamin after dialysis for 90 min [2, 6]: 3.3 ng/mL | Plasma concentration of the vitamin after dialysis for 0 min (Baseline) [2, 7]: 5.8 ng/mL | Plasma concentration of the vitamin after dialysis for 45 min [2, 7]: 32.2 ng/mL | Plasma concentration of the vitamin after dialysis for 90 min [2, 7]: 39.8 ng/mL | Plasma concentration of the vitamin after dialysis for 0 min (Baseline) [2, 8]: 5.8 ng/mL | Plasma concentration of the vitamin after dialysis for 45 min [2, 8]: 256.5 ng/mL | Plasma concentration of the vitamin after dialysis for 90 min [2, 8]: 272.2 ng/mL
Compound: Nc1nc2ncc(CNc3ccc(C(=O)N[C@@H](CCC(=O)O)C(=O)O)cc3)nc2c(=O)[nH]1 [Folic acid, folic acid]
Plasma concentration in hemodialysis patients receiving supplementation in high doses ([1]; 15 mg folic acid daily for 8 weeks, predialysis, mean ± SD): 927 ± 575 μg/L with 15

Compound: C[N+](C)(C)C[C@H](O)CC(=O)[O-] [L-carnitine]
patients showing global improvement in clinical status ([3]; 20 mg/kg intravenous after each hemodialysis session for 6 months, control group 18%): 50% | clinical effects of carnitine administration ([3]; chronic hemodialysis patients): improvement in intradialytic hypotension, muscle cramps, exercise capacity, a sense of well being | Free carnitine plasma concentration in hemodialysis patients receiving supplementation in high doses ([1]; 20 mg/Kg L-carnitine intravenously three times a week following hemodialysis for 6 months, mean ± SE): Free carnitine 250 ± 11 μmol/L | solubility in water [4]: water soluble | fraction of the administered dose excreted in the urine [5]: 58-65% | Fraction of the plasma content that is protein bound (binding in words) (plasma proteins): not bound

Compound: Cc1ncc(COP(=O)(O)O)c(C=O)c1O [Pyridoxal 5′-phosphate (vit B6), pyridoxal 5-phosphate]
Fraction of the plasma content that is protein bound (binding in words) (plasma proteins): albumin

Plasma concentration of the vitamin after dialysis for 0 min (Baseline) [2, 6]: 17 ng/mL | Plasma concentration of the vitamin after dialysis for 90 min [2, 6]: 3.6 ng/mL | Plasma concentration of the vitamin after dialysis for 0 min (Baseline) [2, 9]: 17 ng/mL | Plasma concentration of the vitamin after dialysis for 90 min [2, 9]: 72 ng/mL | Ratio of Plasma to dialysate at the end of dialysis (VP/VD) [2, 9]: 1.2 | Plasma concentration of the vitamin after dialysis for 0 min (Baseline) [2, 10]: 17 ng/mL | Plasma concentration of the vitamin after dialysis for 90 min [2, 10]: >100 ng/mL
Compound: Cc1ncc(C[n+]2csc(CCO)c2C)c(N)n1 [Thiamine, thiamine]
Whole blood thiamine in hemodialysis patients receiving supplementation in high doses ([1]; 600-900 mg thiamine per week, predialysis, mean ± SD): 50 ± 12 µg/L | Fraction of the plasma content that is protein bound (binding in words) (plasma proteins): albumin

Compound: Cc1ncc(CO)c(CO)c1O.Cl [pyridoxine hydrochloride]
effect of addition to the dialysate on plasma PLP concentration ([2]; assay specific for esters such as PLP, does not measure pyridoxine): did not result in an increase in PLP concentration

Compound: cyanocobalamin [Vitamin B12]
Plasma concentration in hemodialysis patients receiving supplementation in high doses ([1]; vitamin B12, Bostom et al., predialysis, mean ± SD): 1.3 ± 0.4 ng/mL | solubility in water [4]: soluble in water | Fraction of the plasma content that is protein bound (binding in words) (plasma proteins): Protein bound
